ChEMBL document CHEMBL1201862, “PubChem BioAssay data set” (2004)
Activity calls are given as the source filed them.

Key:
Prothrombin = Prothrombin (Homo sapiens, UniProt P00734); assay: Thrombin 1536 HTS Dose Response Confirmation. [Related pubchem assays: 1046 (Thrombin 1536 HTS; hits were confirmed in this assay)]; format: functional
P388 = assay: cells; format: functional; settings: Mus musculus
P388/ADR = assay: cells; format: functional; settings: Mus musculus
SN12K1 = assay: cells; format: functional; settings: Homo sapiens
Cytochrome P450 3A4 = Cytochrome P450 3A4 (Homo sapiens, UniProt P08684);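 further: CYP3A4 tested as one member of a cytochrome P450 panel screen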
Cytochrome P450 2C19 = Cytochrome P450 2C19 (Homo sapiens, UniProt P33261); assay: Cytochrome panel assay with activity outcomes. Panel member name: p450-cyp2c19 Compounds with AC50 equal or less than 10 uM are considered active; format: functional; settings: read-out: AC50
Cytochrome P450 2C9 = Cytochrome P450 2C9 (Homo sapiens, UniProt P11712)
Cytochrome P450 2D6 = Cytochrome P450 2D6 (Homo sapiens, UniProt P10635);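 further: CYP2D6 member of a cytochrome P450 panel assay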
[1] = viability of uninfected HEp-2 cells – cell-based, HTS, cytotoxicity control for RSV inhibitor project, dose response (AID 2410); format: functional; settings: human respiratory syncytial virus
[2] = molecular target: Disintegrin and metalloproteinase domain-containing protein 17 (Homo sapiens, UniProt P78536); assay: exosite inhibitors of ADAM17, dose response, biochemical (AID 743260)
[3] = inhibition of ADAM10 peptide cleavage – biochemical, FRET peptide substrate, recombinant human ADAM10, selectivity assay for ADAM17 exosite inhibitor project, dose response (AID 743259);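 further: ADAM10 enzyme cleaving a FRET peptide substrate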
Cytochrome P450 1A2 = molecular target: T1, Cytochrome P450 1A2 (Homo sapiens, UniProt P05177);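 further: PubChem cytochrome P450 panel assay, CYP1A2 panel member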
T1 sequence (P05177 whole entry): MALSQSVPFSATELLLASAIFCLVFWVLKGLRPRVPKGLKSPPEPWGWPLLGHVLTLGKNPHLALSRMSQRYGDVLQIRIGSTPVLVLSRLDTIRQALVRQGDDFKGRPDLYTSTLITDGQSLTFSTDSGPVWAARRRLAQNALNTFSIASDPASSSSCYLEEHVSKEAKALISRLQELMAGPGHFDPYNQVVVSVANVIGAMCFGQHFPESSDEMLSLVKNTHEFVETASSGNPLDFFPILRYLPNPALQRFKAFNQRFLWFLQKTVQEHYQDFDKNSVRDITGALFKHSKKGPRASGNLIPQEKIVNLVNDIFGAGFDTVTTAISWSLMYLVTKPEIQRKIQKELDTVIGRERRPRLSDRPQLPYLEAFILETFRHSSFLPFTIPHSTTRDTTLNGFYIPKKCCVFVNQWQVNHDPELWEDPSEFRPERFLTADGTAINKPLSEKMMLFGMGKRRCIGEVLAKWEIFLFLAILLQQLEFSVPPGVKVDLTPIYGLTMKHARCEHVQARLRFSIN

[4] = toxicity to human hepatoma HepG2 cells – cell-based, cherry-picked samples, cytotoxicity control, dose response (AID 1159577); format: functional
[5] = P. falciparum Dd2 growth inhibitors, dose response, SYBR Green, cherry-picked samples (AID 1159567); format: functional, cell-based
[6] = molecular target: T2, Alkaline phosphatase, tissue-nonspecific isozyme (Homo sapiens, UniProt P05186); assay: potency against alkaline phosphatase TNAP – biochemical, luminescent, dose response, SAR follow-up (AID 1056)
T2 sequence (P05186 whole entry): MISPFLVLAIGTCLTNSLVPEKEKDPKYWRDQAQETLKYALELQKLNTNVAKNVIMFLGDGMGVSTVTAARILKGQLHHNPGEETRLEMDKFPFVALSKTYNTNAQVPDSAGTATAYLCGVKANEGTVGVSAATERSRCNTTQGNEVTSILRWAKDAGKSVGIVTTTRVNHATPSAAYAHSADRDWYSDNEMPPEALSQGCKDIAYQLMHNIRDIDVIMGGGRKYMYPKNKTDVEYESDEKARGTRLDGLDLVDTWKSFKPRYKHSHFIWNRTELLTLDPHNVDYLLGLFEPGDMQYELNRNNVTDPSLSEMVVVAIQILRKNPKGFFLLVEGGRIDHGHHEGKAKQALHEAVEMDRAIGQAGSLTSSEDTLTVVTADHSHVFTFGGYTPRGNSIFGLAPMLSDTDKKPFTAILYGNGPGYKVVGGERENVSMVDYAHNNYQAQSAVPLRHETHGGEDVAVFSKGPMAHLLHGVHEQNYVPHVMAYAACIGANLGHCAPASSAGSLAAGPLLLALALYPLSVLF

[7] = molecular target: Glyceraldehyde-3-phosphate dehydrogenase (Homo sapiens, UniProt P04406)
[8] = general mammalian cell viability loss – inhibitor set, cherry-pick, set 2, cytotoxicity control for miR-122 modulator project, dose response (AID 720697); format: functional, cell-based
Protein skinhead-1 = molecular target: T3, Protein skinhead-1 (Caenorhabditis elegans, UniProt P34707); format: functional
T3 sequence (P34707 whole entry): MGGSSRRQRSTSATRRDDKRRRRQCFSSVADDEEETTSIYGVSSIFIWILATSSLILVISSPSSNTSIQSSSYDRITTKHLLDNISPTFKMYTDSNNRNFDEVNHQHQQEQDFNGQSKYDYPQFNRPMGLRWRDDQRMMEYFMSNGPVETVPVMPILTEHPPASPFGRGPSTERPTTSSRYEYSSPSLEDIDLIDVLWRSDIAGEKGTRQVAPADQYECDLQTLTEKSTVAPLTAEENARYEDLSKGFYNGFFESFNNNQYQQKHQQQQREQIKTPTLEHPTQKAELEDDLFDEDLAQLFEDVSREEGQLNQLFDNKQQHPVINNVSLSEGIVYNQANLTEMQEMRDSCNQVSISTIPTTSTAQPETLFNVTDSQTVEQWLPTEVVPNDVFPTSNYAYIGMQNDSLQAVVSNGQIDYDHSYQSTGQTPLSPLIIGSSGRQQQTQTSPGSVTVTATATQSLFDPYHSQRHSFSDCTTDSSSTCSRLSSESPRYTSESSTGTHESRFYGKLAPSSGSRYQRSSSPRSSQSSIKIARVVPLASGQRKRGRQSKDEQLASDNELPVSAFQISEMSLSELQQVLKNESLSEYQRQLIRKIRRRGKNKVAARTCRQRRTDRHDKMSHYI

[9] = viability loss in THP-1 monocytes – THP-1 cells, cytotoxicity control for Vif-APOBEC3G degradation inhibitor project, dose response (AID 1117359); format: functional; settings: THP-1
[10] = molecular target: T4, Heat shock factor protein 1 (Mus musculus, UniProt P38532); assay: decrease of HSF1-responsive luciferase luminescence – cell-based, NIH3T3, dose retest, confirmation (AID 2382); format: functional;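 further: NIH3T3 fibroblasts with HSF1-driven luciferase reporter stressed by proteasome inhibitor MG132; luminescence from HSF1-driven luciferase expression after 8 hours of MG132 stress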
T4 sequence (P38532 whole entry): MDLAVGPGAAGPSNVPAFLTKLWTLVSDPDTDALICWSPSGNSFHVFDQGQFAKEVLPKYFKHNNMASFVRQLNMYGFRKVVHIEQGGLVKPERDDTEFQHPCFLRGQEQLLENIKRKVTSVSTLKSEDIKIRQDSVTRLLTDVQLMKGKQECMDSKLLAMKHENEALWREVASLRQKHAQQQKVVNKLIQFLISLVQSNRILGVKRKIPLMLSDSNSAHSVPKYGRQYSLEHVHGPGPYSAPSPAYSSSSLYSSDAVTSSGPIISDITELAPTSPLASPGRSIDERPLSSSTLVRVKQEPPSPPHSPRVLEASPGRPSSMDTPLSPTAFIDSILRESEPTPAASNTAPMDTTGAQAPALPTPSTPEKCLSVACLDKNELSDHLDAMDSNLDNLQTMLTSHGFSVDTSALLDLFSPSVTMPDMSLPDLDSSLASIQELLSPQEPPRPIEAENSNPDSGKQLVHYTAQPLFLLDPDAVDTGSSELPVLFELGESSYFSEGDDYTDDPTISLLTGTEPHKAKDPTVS

[11] = molecular target: T5, Voltage-gated N-type calcium channel alpha-1B subunit/Amyloid beta A4 precursor protein-binding family A member 1 (Homo sapiens, UniProt Q00975+Q02410); format: protein assay
[12] = molecular target: T5, Voltage-gated N-type calcium channel alpha-1B subunit/Amyloid beta A4 precursor protein-binding family A member 1; format: protein assay; remark: listed apart in the source

Chain of Disintegrin and metalloproteinase domain-containing protein 17 (P78536 whole entry, the tested form may be a part): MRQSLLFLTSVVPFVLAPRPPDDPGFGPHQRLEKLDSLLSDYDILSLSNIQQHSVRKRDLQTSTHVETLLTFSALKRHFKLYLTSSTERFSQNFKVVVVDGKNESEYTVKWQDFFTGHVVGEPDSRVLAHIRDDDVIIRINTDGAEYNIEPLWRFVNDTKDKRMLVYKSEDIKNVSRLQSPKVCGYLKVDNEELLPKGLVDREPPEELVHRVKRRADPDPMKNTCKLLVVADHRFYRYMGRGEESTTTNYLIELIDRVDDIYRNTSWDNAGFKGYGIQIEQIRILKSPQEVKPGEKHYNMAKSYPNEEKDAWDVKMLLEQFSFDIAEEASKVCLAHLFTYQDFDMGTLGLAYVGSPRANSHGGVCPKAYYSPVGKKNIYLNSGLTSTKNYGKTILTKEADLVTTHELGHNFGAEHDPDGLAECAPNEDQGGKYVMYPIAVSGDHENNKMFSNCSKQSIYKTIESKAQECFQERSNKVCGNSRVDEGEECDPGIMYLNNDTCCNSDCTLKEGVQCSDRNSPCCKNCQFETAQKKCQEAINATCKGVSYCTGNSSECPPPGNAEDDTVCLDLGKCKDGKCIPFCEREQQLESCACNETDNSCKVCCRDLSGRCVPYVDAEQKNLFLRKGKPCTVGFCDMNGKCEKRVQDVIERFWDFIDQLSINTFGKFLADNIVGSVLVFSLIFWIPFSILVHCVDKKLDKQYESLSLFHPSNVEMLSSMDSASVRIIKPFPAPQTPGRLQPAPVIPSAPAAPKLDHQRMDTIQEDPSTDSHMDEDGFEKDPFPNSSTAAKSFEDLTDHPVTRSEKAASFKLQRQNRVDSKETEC
Chain of Glyceraldehyde-3-phosphate dehydrogenase (P04406 whole entry): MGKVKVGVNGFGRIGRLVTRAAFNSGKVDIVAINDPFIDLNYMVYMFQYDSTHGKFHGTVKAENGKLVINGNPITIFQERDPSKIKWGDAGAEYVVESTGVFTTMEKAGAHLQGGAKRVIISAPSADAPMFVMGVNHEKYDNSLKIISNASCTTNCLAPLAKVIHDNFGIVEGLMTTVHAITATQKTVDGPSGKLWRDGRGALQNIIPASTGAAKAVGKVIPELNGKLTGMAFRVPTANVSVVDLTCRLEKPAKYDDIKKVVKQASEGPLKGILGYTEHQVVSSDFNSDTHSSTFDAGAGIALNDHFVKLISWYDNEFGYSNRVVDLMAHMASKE
Chain of Cytochrome P450 2D6 (P10635 whole entry): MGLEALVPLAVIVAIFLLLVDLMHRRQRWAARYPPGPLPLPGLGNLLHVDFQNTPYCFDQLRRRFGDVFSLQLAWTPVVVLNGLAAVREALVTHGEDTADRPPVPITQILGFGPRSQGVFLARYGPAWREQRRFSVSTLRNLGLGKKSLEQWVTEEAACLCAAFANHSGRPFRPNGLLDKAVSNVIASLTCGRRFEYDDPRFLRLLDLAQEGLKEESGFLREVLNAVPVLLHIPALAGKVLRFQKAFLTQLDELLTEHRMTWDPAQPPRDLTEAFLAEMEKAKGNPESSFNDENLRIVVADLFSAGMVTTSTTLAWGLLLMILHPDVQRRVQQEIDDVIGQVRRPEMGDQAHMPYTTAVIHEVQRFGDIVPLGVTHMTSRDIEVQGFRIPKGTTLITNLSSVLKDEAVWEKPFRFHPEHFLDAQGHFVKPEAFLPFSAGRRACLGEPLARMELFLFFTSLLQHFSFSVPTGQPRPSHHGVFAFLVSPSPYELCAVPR
Chain of Cytochrome P450 3A4 (P08684 whole entry): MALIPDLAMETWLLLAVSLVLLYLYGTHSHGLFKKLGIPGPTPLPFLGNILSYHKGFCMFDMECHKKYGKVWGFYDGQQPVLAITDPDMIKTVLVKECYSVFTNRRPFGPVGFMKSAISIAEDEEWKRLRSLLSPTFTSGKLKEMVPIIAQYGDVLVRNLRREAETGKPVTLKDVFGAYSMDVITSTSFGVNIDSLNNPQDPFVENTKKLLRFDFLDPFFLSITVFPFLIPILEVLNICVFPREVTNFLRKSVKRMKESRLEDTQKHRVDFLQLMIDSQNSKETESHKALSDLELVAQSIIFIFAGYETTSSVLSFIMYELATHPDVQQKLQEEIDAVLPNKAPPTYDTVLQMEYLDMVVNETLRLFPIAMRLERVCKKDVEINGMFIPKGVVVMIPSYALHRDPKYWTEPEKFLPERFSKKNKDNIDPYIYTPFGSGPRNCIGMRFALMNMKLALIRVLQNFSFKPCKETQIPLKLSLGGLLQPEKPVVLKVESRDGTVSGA
Chain of Cytochrome P450 2C9 (P11712 whole entry): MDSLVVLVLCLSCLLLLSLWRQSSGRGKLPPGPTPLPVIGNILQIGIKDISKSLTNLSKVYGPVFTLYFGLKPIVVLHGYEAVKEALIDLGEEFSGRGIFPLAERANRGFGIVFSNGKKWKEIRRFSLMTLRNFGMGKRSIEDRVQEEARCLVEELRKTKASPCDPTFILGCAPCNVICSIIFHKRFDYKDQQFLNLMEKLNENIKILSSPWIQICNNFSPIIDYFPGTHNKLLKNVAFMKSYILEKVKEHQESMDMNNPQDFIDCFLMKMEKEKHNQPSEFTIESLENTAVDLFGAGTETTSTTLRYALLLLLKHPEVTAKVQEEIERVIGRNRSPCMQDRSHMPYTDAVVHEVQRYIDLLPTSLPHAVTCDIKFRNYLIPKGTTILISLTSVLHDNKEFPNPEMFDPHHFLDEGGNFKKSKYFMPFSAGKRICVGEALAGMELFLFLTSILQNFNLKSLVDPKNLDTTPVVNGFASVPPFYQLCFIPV
Chain of Cytochrome P450 2C19 (P33261 whole entry): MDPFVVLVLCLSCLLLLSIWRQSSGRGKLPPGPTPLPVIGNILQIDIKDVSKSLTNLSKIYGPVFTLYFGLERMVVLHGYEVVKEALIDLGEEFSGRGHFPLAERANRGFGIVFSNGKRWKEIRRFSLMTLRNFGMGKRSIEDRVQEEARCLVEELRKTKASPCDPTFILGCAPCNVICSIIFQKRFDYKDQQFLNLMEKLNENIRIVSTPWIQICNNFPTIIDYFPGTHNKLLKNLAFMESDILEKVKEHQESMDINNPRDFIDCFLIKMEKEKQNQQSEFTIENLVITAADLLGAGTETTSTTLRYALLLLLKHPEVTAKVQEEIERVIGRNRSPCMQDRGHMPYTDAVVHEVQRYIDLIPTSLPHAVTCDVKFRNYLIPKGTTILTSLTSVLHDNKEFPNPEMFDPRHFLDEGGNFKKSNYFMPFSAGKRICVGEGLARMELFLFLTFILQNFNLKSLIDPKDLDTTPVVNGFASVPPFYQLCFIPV

O=C(CCc1ccccc1)n1nc(-c2ccco2)nc1SCc1ccccc1
IC50 (Prothrombin): 0.133 µM (active)

O=[N+]([O-])c1ccc2[nH]c3c(-c4ccccc4)nccc3c2c1
GI50 (P388): 10.9 µM (inactive)
GI50 (P388/ADR): 12.9 µM (inactive)
GI50 (SN12K1): 20.5 µM (inactive)

Cc1cccc(C(=O)N2CCC(c3nc(-c4ccc(S(=O)(=O)N5CCOCC5)cc4)no3)CC2)c1
AC50 (Cytochrome P450 3A4): inconclusive
AC50 (Cytochrome P450 2C19): 15.8 µM (inconclusive)
AC50 (Cytochrome P450 2C9): 39.8 µM (inconclusive)
AC50 (Cytochrome P450 2D6): 0.00316 µM (inconclusive)

Clc1cccc(NCc2nnc(SCc3ccc(Cl)cc3Cl)o2)c1
CC50 [1]: 19.1 µM (active)
IC50 [2]: > 69.5 µM (inactive)
IC50 [3]: 25.4 µM (inactive)

C[C@]12Cc3cn4c(nc3C=C1CC[C@H]1[C@@H]2CC[C@@]2(C)[C@H]1CC[C@@]2(O)C#N)nc1ccccc14
AC50 (Cytochrome P450 1A2): 15.8 µM (inconclusive)
AC50 (Cytochrome P450 3A4): inconclusive
AC50 (Cytochrome P450 2C19): 7.94 µM (inconclusive)
AC50 (Cytochrome P450 2C9): 10 µM (inconclusive)
AC50 (Cytochrome P450 2D6): 25.1 µM (inconclusive)

O=C(CC(c1ccc(F)cc1)c1ccco1)N1CCOCC1 (configuration not stated)
IC50 (Prothrombin): > 50 µM (not active)

OC[C@H]1[C@@H](c2ccc(/C=C/c3ccccc3)cc2)[C@@H]2CN(Cc3ccncc3)CCCCN12
AC50 [4]: 12.7 µM (active)
AC50 [5]: 2.32 µM (active)

Cc1ccccc1OCC(=O)Nc1ccc(N2CCN(C(=O)C(C)C)CC2)c(Cl)c1
AC50 (Cytochrome P450 1A2): 15.8 µM (inconclusive)
AC50 (Cytochrome P450 3A4): inconclusive

O=C1C2CCCCC2C(=O)N1c1nccs1 (configuration not stated)
IC50 [6]: > 10 µM (inactive)
IC50 [7]: > 10 µM (inconclusive)

CCC(/C=C/C1OC(=O)C=CC1C)=C\C(C)C/C=C/C(C)=C/C(C)C(=O)C(C)C(O)C(C)C/C(C)=C/C(=O)O (configuration not stated)
GI50 (P388): 0.914 µM (active)
GI50 (SN12K1): 1.56 µM (inactive)

CCOc1cc(C)c(C)cc1S(=O)(=O)Nc1cccnc1
IC50 [6]: 1.7 µM (active)
IC50 [7]: > 100 µM (not active)

Cn1c(SCC(=O)NN=C(S)Nc2ccccc2)nnc1-c1ccncc1
IC50 (Prothrombin): > 50 µM (not active)

C[N+](C)([O-])CCOc1cc2c(c3ccccc13)-c1ccccc1C2=O
GI50 (P388): 6.19 µM (inactive)
GI50 (P388/ADR): 8.79 µM (inactive)
GI50 (SN12K1): 4.37 µM (inactive)

CCN(CC)S(=O)(=O)c1ccc(C(=O)NC2=C(C(=O)OC)SCC2)cc1
AC50 (Cytochrome P450 3A4): inconclusive

Cc1ccc(-c2ccc3c(c2)O[C@@H](CN(C)C(=O)Nc2ccc(C(F)(F)F)cc2)[C@H](C)CN([C@H](C)CO)S3(=O)=O)cc1
AC50 [4]: > 39 µM (inactive)
AC50 [5]: 5.26 µM (active)

O=C(Cn1c(=O)c2ccccc2n(CC(=O)N2CCCCC2)c1=O)N1CCCCC1
AC50 [8]: 6.5 µM (active)

N#Cc1c(N)nc2c(c1-c1cccs1)CCCC2
AC50 [8]: 6.16 µM (active)

COc1ccc(C2=NS(=O)(=O)N(C)C(C(=O)Nc3ccc(C)cc3)=C2)cc1
IC50 [2]: > 69.5 µM (inactive)
IC50 [3]: 56.7 µM (inactive)

CCNC(=O)C[C@H]1CC[C@H]2[C@H](COc3ccc(NS(C)(=O)=O)cc3C(=O)N2C)O1
AC50 [8]: 3.57 µM (active)

COc1ccc(NC(=O)C2CCN(S(=O)(=O)c3c(C)noc3/C=C/N(C)C)CC2)cc1
IC50 [2]: > 69.5 µM (inactive)
IC50 [3]: 23.9 µM (inactive)

CN(C)CCCNC(=O)C[C@H]1CC[C@H]2[C@H](COc3ccc(NC(=O)NC4CCCC4)cc3C(=O)N2C)O1
AC50 [8]: 0.509 µM (active)

c1ccc(Oc2cc(-c3ccccc3)ncn2)cc1
AC50 (Cytochrome P450 3A4): inconclusive
IC50 (Protein skinhead-1): 17.4 µM (active)

c1ccc(-c2noc(CSc3nnnn3C3CCCCC3)n2)cc1
AC50 (Cytochrome P450 3A4): inconclusive
AC50 (Cytochrome P450 2D6): 17.8 µM (inconclusive)

NNC(=O)c1ccc(N2CCc3ccccc32)c([N+](=O)[O-])c1
CC50 [9]: > 40 µM (active)
EC50 [10]: > 195 µM (not active)

O=S(=O)(Nc1cccnc1)c1ccc(Br)cc1OC(F)(F)F
IC50 [6]: 10.9 µM (active)
IC50 [7]: > 100 µM (not active)

CC(=O)NC1=NC(=O)/C(=C/c2cn(C(C)=O)nc2-c2ccccc2)S1
IC50 [11]: > 56.8 µM (not active)
IC50 [12]: > 50 µM (inactive)

CN(C)CCNC(=O)c1cccc2ccc(-c3ccc(F)cc3)nc12
GI50 (P388): 0.61 µM (active)
GI50 (P388/ADR): 1.75 µM (inactive)
GI50 (SN12K1): 2.96 µM (inactive)

CN(c1ccc(OCc2ccc([N+](=O)[O-])cc2)cc1)S(=O)(=O)c1ccccc1
IC50 [2]: > 69.5 µM (inactive)
IC50 [3]: > 69.5 µM (inactive)

COc1nc(SC)nc2c1cnn2C1OC(C(O)CO)C(OC)C1O (configuration not stated)
GI50 (P388): > 39.4 µM (inactive)
GI50 (P388/ADR): 41.3 µM (inactive)
GI50 (SN12K1): > 54.3 µM (inactive)

O=C(NN1C(=O)CS(=O)(=O)C1c1ccc(Cl)c(Cl)c1)c1ccncc1 (configuration not stated)
GI50 (P388): 25.6 µM (inactive)
GI50 (P388/ADR): 36.6 µM (inactive)
GI50 (SN12K1): > 100 µM (inactive)

O=C(Nc1cc(Cl)ccc1O)C1CC(c2c(F)cccc2Cl)=NO1 (configuration not stated)
IC50 [2]: > 69.5 µM (inactive)
IC50 [3]: > 69.5 µM (inactive)

C/C=C/c1ccc([C@@H]2[C@@H](CO)N(c3nc(CC)cs3)[C@@H]2CNC(C)C)cc1
AC50 [4]: 20.8 µM (active)
AC50 [5]: 0.751 µM (active)
